Measured values taken from US11149062B2, “HDAC inhibitors and methods of treatment using the same” (UWM Research Foundation, Inc., priority 2015, dated 2021).
Where two headings read alike, the source gives them in different places.

Experiments:
Recombinant human HDAC2 = molecular target: T1, Recombinant human HDAC2 (Homo sapiens, UniProt Q92769); experiment: HDAC-Glo I/II assay, HDAC2; assay type: biochemical; conditions: Class I HDAC; compounds reduced by TCEP prior to assay
T1 construct: purchased BPS Bioscience Inc
T1 sequence (Q92769 whole entry): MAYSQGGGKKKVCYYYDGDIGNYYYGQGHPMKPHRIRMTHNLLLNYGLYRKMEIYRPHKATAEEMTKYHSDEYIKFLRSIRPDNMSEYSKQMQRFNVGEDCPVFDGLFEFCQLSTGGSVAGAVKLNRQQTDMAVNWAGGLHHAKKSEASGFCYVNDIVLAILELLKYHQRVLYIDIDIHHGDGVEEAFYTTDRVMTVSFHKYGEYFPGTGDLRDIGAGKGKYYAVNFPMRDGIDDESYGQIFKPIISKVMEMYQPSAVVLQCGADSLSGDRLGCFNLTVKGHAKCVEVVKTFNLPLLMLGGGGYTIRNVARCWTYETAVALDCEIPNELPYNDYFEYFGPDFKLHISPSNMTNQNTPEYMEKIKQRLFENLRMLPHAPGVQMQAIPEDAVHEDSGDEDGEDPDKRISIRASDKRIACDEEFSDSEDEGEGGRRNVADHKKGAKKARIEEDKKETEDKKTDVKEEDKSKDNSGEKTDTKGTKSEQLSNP
Experimental: (§1) The purified compounds of all fragments and natural product derivatives were evaluated for inhibitory effects on three different classes of HDAC proteins (class I, IIa, and IIb). […] All activity was determined by using a fluorescence-based in vitro assay. Class I HDAC proteins that were evaluated were HDAC1, HDAC2, HDAC3, HDAC8, HDAC4, and HDAC6. Class IIa HDAC protein were HDAC4 and the Class IIb HDAC protein were HDAC6.
(§2) HDAC-Glo™ I/II Assay and Screening System (Promega) was used to determine the HDAC inhibitory activity. Recombinant human HDAC1, HDAC2, HDAC3, HDAC4, HDAC6 and HDAC8 were purchased from BPS Bioscience Inc. The inhibitory activities of the test compounds against recombinant HDAC were performed according to reagent suppliers' protocols.
(§3) All test compounds were firstly dissolved in DMSO to make 10 mM stock solution. A certain amount of stock solution was diluted to 1 mM by DMSO and then reduced by tris(2-carboxyethyl)phosphine hydrochloride (TCEP) in a molar ration of 1:1.5 for 20 min at ambient temperature prior to being assayed. After reduction, a series of fivefold dilutions of each reduced compound were prepared with HDAC-Glo buffer and 25 μL of each dilution was added into a well on a 96-well plate. HDAC enzymes were diluted to the desired concentrations with HDAC-Glo buffer and 25 μL of each diluted enzyme was dispensed into a well to mix with 25 μL of testing compound at room temperature for 30-60 seconds. After the reaction mixture had been incubated at room temperature for 1 hour, 50 μL of HDAC-Glo reagent was added to each reaction well and mixed up for 30-60 seconds. Finally, the plate was incubated at room temperature for an additional 30 minutes before the luminescence was measured on a Synergy HT plate reader (Bio-Tek). The luminescence intensity data were analyzed using GraphPad Prism 5 (GraphPad Software). In the absence of any test compound, the luminescence intensity (I100) in each data set was defined as 100% activity. In the absence of both of HDAC enzymes and test compound, the luminescence intensity (I0) in each data set was defined as 0% activity. The relative activity (%) in the presence of each compound was calculated according to the following equation: % activity=(I−I0)/(I100−I0), where I=the luminescence intensity if a compound is present in the reaction. Experiments were performed in triplicate and the calculated mean values were used for plotting.

HeLa (cervical cancer) = experiment: MTT antiproliferative assay, HeLa; assay type: cell-based; conditions: Homo sapiens, 48 h, read-out: Antiproliferative Activity GI50, Cervical HeLa
Experimental: (§4) Briefly, the tumor cells (1×10^4 cells/well) were seeded in 96-well microtiter plates and incubated for 24 h at 37° C. Following incubation, the media was replaced with fresh media containing the above compounds at concentrations ranging from 1 μM to 1 pM diluted in DMSO and incubated for an additional 48 h. Drugs were run in duplicate or triplicate and control cells received fresh media with DMSO concentration equivalent to the treatment groups. […] After aspirating the culture medium, 200 μL of DMSO was added to dissolve the precipitate and the resulting solution was measured for absorbance at 570 nm with a reference wavelength of 690 nm using a microplate reader (Infinite M200 Pro TECAN).

RFX393 (renal) = experiment: MTT antiproliferative assay, RFX393; assay type: cell-based; conditions: 48 h, read-out: Antiproliferative Activity GI50, Renal RFX393
Experimental: as §4

Recombinant human HDAC8 = molecular target: T2, Recombinant human HDAC8 (Homo sapiens, UniProt Q9BY41); experiment: HDAC-Glo I/II assay, HDAC8; assay type: biochemical; conditions: Class I HDAC; compounds reduced by TCEP prior to assay
T2 construct: purchased BPS Bioscience Inc
T2 sequence (Q9BY41 1-377): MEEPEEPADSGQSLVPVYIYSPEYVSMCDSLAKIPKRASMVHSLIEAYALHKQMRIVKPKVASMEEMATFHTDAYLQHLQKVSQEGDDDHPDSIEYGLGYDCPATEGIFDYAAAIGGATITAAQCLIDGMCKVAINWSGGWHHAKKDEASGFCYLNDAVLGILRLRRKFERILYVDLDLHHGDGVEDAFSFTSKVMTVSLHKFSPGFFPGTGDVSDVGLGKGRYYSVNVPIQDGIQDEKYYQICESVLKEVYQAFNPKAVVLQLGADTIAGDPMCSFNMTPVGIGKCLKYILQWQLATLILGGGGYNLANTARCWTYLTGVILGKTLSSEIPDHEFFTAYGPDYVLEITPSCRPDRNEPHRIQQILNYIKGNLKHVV
Experimental: as §1, §2, §3

Recombinant human HDAC4 = molecular target: T3, Recombinant human HDAC4 (Homo sapiens, UniProt P56524); experiment: HDAC-Glo I/II assay, HDAC4; assay type: biochemical; conditions: Class IIa HDAC; compounds reduced by TCEP prior to assay; read-out: IC50 of HDAC4
T3 construct: purchased BPS Bioscience Inc
T3 sequence (P56524 whole entry): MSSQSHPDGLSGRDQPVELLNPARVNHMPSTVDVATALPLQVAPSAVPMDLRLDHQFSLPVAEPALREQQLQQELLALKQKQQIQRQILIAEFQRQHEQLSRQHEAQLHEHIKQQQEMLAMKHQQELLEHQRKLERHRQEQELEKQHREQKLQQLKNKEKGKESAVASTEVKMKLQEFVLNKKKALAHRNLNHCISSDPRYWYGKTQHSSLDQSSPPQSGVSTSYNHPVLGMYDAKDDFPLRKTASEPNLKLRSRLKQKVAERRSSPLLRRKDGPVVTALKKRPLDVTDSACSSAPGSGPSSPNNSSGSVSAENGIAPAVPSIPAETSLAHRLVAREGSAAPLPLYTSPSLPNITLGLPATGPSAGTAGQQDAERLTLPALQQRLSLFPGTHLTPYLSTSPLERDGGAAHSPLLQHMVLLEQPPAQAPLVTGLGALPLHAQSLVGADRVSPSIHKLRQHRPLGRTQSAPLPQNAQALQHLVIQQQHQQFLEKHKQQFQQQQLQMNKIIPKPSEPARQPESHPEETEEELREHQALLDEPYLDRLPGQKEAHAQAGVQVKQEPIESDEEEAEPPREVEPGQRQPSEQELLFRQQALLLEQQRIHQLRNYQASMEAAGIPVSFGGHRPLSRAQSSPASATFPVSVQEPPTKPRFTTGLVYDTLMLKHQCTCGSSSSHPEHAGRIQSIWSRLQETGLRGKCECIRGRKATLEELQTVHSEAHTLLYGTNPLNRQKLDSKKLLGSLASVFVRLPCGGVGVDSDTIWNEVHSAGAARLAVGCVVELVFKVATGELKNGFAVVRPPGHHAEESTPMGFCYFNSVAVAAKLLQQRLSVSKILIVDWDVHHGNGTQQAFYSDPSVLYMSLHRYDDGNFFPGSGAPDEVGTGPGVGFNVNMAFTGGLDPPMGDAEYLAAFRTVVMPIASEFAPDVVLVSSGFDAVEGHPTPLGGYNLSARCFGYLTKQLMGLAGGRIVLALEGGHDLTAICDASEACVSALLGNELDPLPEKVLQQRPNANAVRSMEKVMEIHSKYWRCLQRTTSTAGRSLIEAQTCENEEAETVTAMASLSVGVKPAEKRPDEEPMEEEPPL
Experimental: as §1, §2, §3

Recombinant human HDAC1 = molecular target: T4, Recombinant human HDAC1 (Homo sapiens, UniProt Q13547); experiment: HDAC-Glo I/II assay, HDAC1; assay type: biochemical; conditions: for IC50: Class I HDAC, compounds reduced by TCEP prior to assay, read-out: IC50 of HDAC1; for Class I selectivity Ratio HDAC 1/HDAC8 / Class I vs. Class IIa Ratio HDAC 1/HDAC6: ratio of IC50 values
T4 construct: purchased BPS Bioscience Inc
T4 sequence (Q13547 whole entry): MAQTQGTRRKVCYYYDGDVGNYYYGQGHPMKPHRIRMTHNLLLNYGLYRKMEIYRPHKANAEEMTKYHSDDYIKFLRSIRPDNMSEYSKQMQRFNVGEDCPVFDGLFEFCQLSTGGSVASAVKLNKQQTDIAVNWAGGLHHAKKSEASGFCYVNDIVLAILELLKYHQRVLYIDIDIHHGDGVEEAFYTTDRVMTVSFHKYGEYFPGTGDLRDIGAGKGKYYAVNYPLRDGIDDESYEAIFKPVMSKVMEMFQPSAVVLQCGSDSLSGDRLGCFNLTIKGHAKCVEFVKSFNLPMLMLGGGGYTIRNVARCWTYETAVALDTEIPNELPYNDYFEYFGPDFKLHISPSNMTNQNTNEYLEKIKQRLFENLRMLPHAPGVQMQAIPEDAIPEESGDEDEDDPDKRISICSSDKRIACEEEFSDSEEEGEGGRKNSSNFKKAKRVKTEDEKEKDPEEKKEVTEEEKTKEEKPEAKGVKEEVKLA
Experimental: as §1, §2, §3

Recombinant human HDAC3 = molecular target: T5, Recombinant human HDAC3 (Homo sapiens, UniProt O15379); experiment: HDAC-Glo I/II assay, HDAC3; assay type: biochemical; conditions: Class I HDAC; compounds reduced by TCEP prior to assay
T5 construct: purchased BPS Bioscience Inc
T5 sequence (O15379 whole entry): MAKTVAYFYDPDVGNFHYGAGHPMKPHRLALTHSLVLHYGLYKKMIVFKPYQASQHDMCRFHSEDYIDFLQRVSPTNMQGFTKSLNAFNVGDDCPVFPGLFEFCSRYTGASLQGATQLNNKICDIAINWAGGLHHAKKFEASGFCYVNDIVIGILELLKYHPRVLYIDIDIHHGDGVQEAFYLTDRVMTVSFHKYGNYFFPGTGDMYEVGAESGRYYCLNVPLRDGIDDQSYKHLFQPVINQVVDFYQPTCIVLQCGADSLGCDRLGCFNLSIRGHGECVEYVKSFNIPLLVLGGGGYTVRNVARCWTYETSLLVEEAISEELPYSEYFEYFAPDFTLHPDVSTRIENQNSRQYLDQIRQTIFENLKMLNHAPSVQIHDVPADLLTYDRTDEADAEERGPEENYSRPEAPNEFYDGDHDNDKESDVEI
T5 sequence (Q9Y618 395-489 partner limits assumed): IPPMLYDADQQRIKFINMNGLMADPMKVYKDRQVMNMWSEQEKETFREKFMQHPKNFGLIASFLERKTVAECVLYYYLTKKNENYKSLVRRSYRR
Experimental: as §1, §2, §3

HCT-116 (colon cancer) = experiment: MTT antiproliferative assay, HCT-116; assay type: cell-based; conditions: Homo sapiens, read-out: Antiproliferative Activity GI50, Colon HCT-116
Experimental: as §4

in vivo = conditions: BALB/c, mouse, in vivo, ip
Excerpt: BALB/c mice were purchased from The Jackson Laboratory (Bar Harbor, Me.) and used between 7 and 10 weeks of age. Mice were housed in a conventional animal vivarium and were given free access to food and water. All studies and procedures were approved by the Animal Care and Use Committee of the University of Wisconsin, Milwaukee.
Each animal was initially weighed using a digital scale and then intraperitoneally (IP) injected with the compounds (listed in Table 2). A single mouse was given a single IP dose of 200 mg/kg, body weight, a second mouse received a dose of 100 mg/kg and a third mouse received a single dose of 50 mg/kg. The mice were observed and weighed every other day for a period of 2 weeks. They were euthanized if they lost more than 20% of their body weight or if there were other signs of significant toxicity. […] This process was repeated until a tolerated dose was found, and the MTD value was determined.
To determine the MTD in vivo, the compounds listed above were injected intraperitoneally into BALB/c mice and morbidity and mortality were monitored over two weeks.

[1] = system: colon (HCT-116), cervical (HeLa), and renal (RFX393) tumor cell lines; experiment: MTT antiproliferative assay, all three tumor cell lines; assay type: cell-based; conditions: read-out: GI50 values against all three tumor cell lines
Experimental: as §4

[2] = 10 mg/mL cpd in 20% DMSO/saline
SKOV-3 (ovarian) = experiment: MTT antiproliferative assay, SKOV-3; assay type: cell-based; conditions: Homo sapiens, read-out: Antiproliferative Activity GI50, Ovarian SKOV-3
Experimental: as §4

DU-145 (prostate cancer) = experiment: MTT antiproliferative assay, DU-145; assay type: cell-based; conditions: Homo sapiens, read-out: Antiproliferative Activity GI50, Prostate DU-145
Experimental: as §4

[3] = system: MDA-MB-231 (breast cancer); experiment: MTT antiproliferative assay, MDA-MB-231; assay type: cell-based; conditions: Homo sapiens, read-out: Antiproliferative Activity GI50, Breast MDA-MB-231
Experimental: as §4

COLO-205 (colon cancer) = experiment: MTT antiproliferative assay, COLO-205; assay type: cell-based; conditions: Homo sapiens, read-out: Antiproliferative Activity GI50, Colon COLO-205
Experimental: as §4

[4] = HCT-116, HeLa, RFX393, summary of Table 3

Compound	IC50 (Recombinant human HDAC2) [µM]	GI50 (HeLa (cervical cancer); MTT) [µM]	GI50 (RFX393 (renal); MTT) [µM]	IC50 (Recombinant human HDAC8) [µM]	IC50 (Recombinant human HDAC4) [µM]	IC50 (Recombinant human HDAC1) [µM]	Class I selectivity Ratio HDAC 1/HDAC8 (Recombinant human HDAC1)	IC50 (Recombinant human HDAC3) [µM]	GI50 (HCT-116 (colon cancer); HCT-116, MTT, 48 h) [µM]	MTD at 2 weeks (in vivo) [mg/kg]	Solubility [2]	Class I vs. Class IIa Ratio HDAC 1/HDAC6 (Recombinant human HDAC1)	further results
CC(C)[C@H](NC(=O)CC(O)/C=C/CCS)C(=O)O (stereo partly shown) [TDF6]	0.111	3.6	3.1	16.6	> 1000	0.0035	0.00003	0.0416	1.3	> 200	Soluble		GI50 [1, 4]: ≤ 4 µM
CCC(C)[C@H]1NC(=O)[C@H]2CSSCC/C=C/[C@H](CC(=O)N[C@H](CCSC)C(=O)N2)OC(=O)C[C@@H]1OC(C)=O (stereo partly shown) [TDC3]	0.0442	0.332	0.107	10	40.5	0.0027	0.00006	0.245	0.12	> 200	Not soluble	0.0020	
CCC(C)C(NC(=O)CC(O)/C=C/CCS)C(=O)O (stereo not shown) [TDF4]		4.8	4.1	43.9	> 1000	0.0039		0.714	3.7	> 200	Mostly soluble		GI50 [1, 4]: ≤ 5 µM
CCCC[C@H]1NC(=O)C[C@H]2/C=C/CCSSC[C@@H](NC1=O)C(=O)N[C@H](C(C)CC)[C@@H](O)CC(=O)O2 (stereo partly shown) [TDP-B, Thailandepsin B, reference compound]	0.0256	0.0021	0.0022	10.9	27.9	0.0022	0.00026	0.0482	0.002	6.25	Not soluble	0.0034	
CCC(C)[C@H]1NC(=O)[C@H]2CSSCC/C=C/[C@H](CC(=O)N[C@H](CCSC)C(=O)N2)OC(=O)C[C@@H]1OCCC=O (stereo partly shown) [TDC2]	0.037	0.141	0.051	4.33	135	0.0096	0.00096	0.701	0.056	12.5	Not soluble	0.0064	
O=C(CCCCCCC(=O)Nc1ccccc1)NO [SAHA, suberoyl anilide hydroxamic acid, reference compound]											Not soluble		GI50 (HeLa (cervical cancer)): 2.8 µM; GI50 (RFX393 (renal)): 2.5 µM; GI50 (HCT-116 (colon cancer); HCT-116, 48 h): 2.7 µM; MTD at 2 weeks (in vivo; MTD (toxicity in healthy BALB/c mice), single IP dose, observed 2 weeks): > 200 mg/kg; GI50 (SKOV-3 (ovarian); SK-OV-3, 48 h): 1.5 µM; GI50 (DU-145 (prostate cancer); DU-145, 48 h): 2 µM; GI50 [1]: 2.5 to 3 µM; GI50 ([3]; MDA-MB-231, 48 h): 1.5 µM; GI50 (COLO-205 (colon cancer); COLO 205, 48 h): 0.5 µM
CCC(C)[C@H]1NC(=O)[C@H]2CSSCC/C=C/[C@H](CC(=O)N[C@H](CCSC)C(=O)N2)OC(=O)C[C@@H]1OC(=O)c1ccccc1 (stereo partly shown) [TDC1]	0.051	0.225	0.0351	3.67	~500	0.0109	0.00252	0.64	0.0247	50	Not soluble	0.0020	GI50 (SKOV-3 (ovarian); SK-OV-3, MTT, 48 h): 0.03 µM; GI50 (DU-145 (prostate cancer); DU-145, MTT, 48 h): 0.08 µM; GI50 ([3]; MDA-MB-231, MTT, 48 h): 0.04 µM; GI50 (COLO-205 (colon cancer); COLO 205, MTT, 48 h): 0.07 µM
CCC(C)[C@H]1NC(=O)[C@H]2CSSCC/C=C/[C@H](CC(=O)N[C@H](CCSC)C(=O)N2)OC(=O)C[C@@H]1O (stereo partly shown) [TDP-A, Thailandepsin A, reference compound]	0.0081	0.00036	0.00047	8.44	20.5	0.0024	0.00065	0.0077	0.00093	6.25	Not soluble	0.0088	GI50 (SKOV-3 (ovarian); SK-OV-3, MTT, 48 h): 0.002 µM; GI50 (DU-145 (prostate cancer); DU-145, MTT, 48 h): 0.001 µM; GI50 ([3]; MDA-MB-231, MTT, 48 h): 0.003 µM; GI50 (COLO-205 (colon cancer); COLO 205, MTT, 48 h): 0.0035 µM
